From patent publication US20060039869A1, “Intranasal delivery of antipsychotic drugs” (priority 2004, published 2006)
Where “and” joins values, the source holds several entries; their conditions need not be identical. Equal entries are not always repeated. Where two headings read alike, the source gives them in different places.

Columns and labels:
[1] = for Tmax: healthy subjects n=4, median (range)
[2] = cited from earlier work
[3] = clinical; details: human, plasma, 2.5 mg; for Cmax: n=4, mean (CV %)

For `O=C(CCCN1CCC(O)(c2ccc(Cl)cc2)CC1)c1ccc(F)cc1` [haloperidol lactate, haloperidol], the Tmax ([1]; IM 2.5 mg) was 0.625 (0.25-16) h, the “Cmax after intranasal dose compared with intramuscular dose” value ([1]; IN 2.5 mg vs IM 2.5 mg) was “slightly higher” and the Tmax ([1]; IN 2.5 mg) was 0.25 (0.12-0.5) h. For the same compound, the “Cmax, individual subjects” value ([1]; IN 2.5 mg, single subjects) was 16.2 ng/mL and 7.5 to 7.9 ng/mL, the “time at which haloperidol concentrations reached a peak, individual subjects” value ([1]; IN 2.5 mg, single subjects) was 7.5 min and 15 min and 30 min and the “half-lives, intravenous and intranasal” value ([1]; IV vs IN 2.5 mg) was “similar”. For the same compound, the “time of peak plasma concentration” value ([2]; intramuscular administration) was “approximately 20 minutes”, the absolute bioavailability ([2]; oral administration) was “approximately 65%” and the AUC(0-inf) ([3]; both, im) was 81.8 ng·h/mL. The AUC(0-t) ([3]; both, im) was 59.7 ng·h/mL, the MRT ([3]; both, im) was 16.1 h and the Tmax ([3]; both, im) was 0.625 h. For the same compound, the Vd/F ([3]; both, im) was 1360 L, the half-life ([3]; both, im) was 28.8 h and the Cmax ([3]; both, im, IM 2.5 mg) was 8.42 ng/mL. It also gave a bioavailability ([3]; both, intramuscular) of 134%, an AUC(0-inf) ([3]; both, iv) of 60.4 ng·h/mL and an AUC(0-t) ([3]; both, iv) of 50.8 ng·h/mL. For the same compound, the MRT ([3]; both, iv) was 12.7 h, the Tmax ([3]; both, iv) was 0.25 h and the Vd ([3]; both, iv) was 934 L. For the same compound, the half-life ([3]; both, iv) was 17.1 h, the Cmax ([3]; both, iv, IV 2.5 mg) was 23.3 ng/mL and the AUC(0-inf) ([3]; both, other: intranasal) was 37.9 ng·h/mL. The AUC(0-t) ([3]; both, other: intranasal) was 31.7 ng·h/mL, the MRT ([3]; both, other: intranasal) was 12.9 h and the Tmax ([3]; both, other: intranasal) was 0.25 h. It also gave a Vd/F ([3]; both, other: intranasal) of 1580 L, a bioavailability ([3]; both, other: intranasal) of 63.8% and a half-life ([3]; both, other: intranasal) of 16.9 h. For the same compound, the Cmax ([3]; both, other: intranasal, IN 2.5 mg) was 9.8 ng/mL and the Tmax ([3]; im) was 16 h.
